Data as given in patent US10456509B2, “Chlorhexidine gluconate compositions, resin systems and articles” (3M INNOVATIVE PROPERTIES COMPANY, priority 2012, dated 2019).
Where a name gives a salt, the structure may show the parent alone. Read-outs that look alike come from different tables or passages of the source.

Columns and labels:
[1] = Solubility Screening of CHG in vehicles, Vacuum Method
Method: Solubility Screening. Screening tests were conducted to determine the solubility of CHG in a wide variety of vehicles. Tests were conducted using the Vacuum Method and the Lyophilizing Method.
Vacuum Method. […] The flask was put in a 60° C. oil bath and stirred with a magnetic stir bar. […] In those cases, after nearly all the water was removed, additional vehicle was added to bring the final weight to 50 grams. The resulting concentration of CHG and residual water were determined. Also, the final state of the solution was qualitatively evaluated to determine if the mixture was transparent and apparently homogenous, or clearly inhomogeneous.

[2] = Solubility of lyophilized CHG in vehicles, Lyophilization Method; conditions: for Apparent solubility 2 minutes / Apparent solubility 2 hours 50° C. / Apparent solubility >24 hours / Apparent solubility after cooling / Apparent solubility immediate: 0.2 wt. % lyophilized CHG; for Apparent solubility 2 minutes: after 2 minutes; for Apparent solubility 2 hours 50° C.: after 2 hours in 50° C. oven; for Apparent solubility >24 hours: after 24 hours; for Apparent solubility after cooling: after cooling to room temperature; for Apparent solubility immediate: observed immediately after mixing
Method: The Lyophilization Method. Lyophilized CHG was prepared by freeze-drying the aqueous CHG solution (20 wt. % solution in water, obtained from Xttrium Laboratories Inc., Chicago, Ill.).
For lower viscosity vehicles, a 5 ml sample of the non-aqueous vehicle of interest was measured into a glass vial. For higher viscosity vehicles that were difficult to transfer by volume, a 5 gm sample was weighed into the vial. Next, 0.01 g of lyophilized CHG was added to the vial. The sample was capped and mixed by shaking for 30 seconds. The sample was immediately observed and then observed again after 2 minutes and again after 24 hours. After 24 hours, the sample was placed in a 50° C. oven for 2 hours and then removed and immediately observed. These samples were allowed to cool to room temperature and a final observation was made.
CHG solutions. The solutions containing CHG were either a 20 wt. % aqueous solution of CHG or a 10-20% w/w solution of CHG in a non-aqueous vehicle. The non-aqueous solutions were prepared by freeze drying the aqueous CHG solution to produce lyophilized CHG. Finely divided, lyophilized CHG was then solubilized in a non-aqueous vehicle at room temperature with continuous stirring for eight hours.

[3] = CHG 10 wt. % in vehicle, 23-50° C., Vacuum Method
[4] = CHG 20 wt. % in vehicle, 23-50° C., Vacuum Method
[5] = summary of Tables 1a-3b, Vacuum Method
[6] = CHG 5 wt. % in vehicle, 23-50° C., Vacuum Method

## OCCCCC(O)CO (stereo not drawn) [1,2,6-trihydroxyhexane]
[1]; [3]
  Final State: Homogeneous

## CCCCCCC(O)CO (stereo not drawn) [1,2-octanediol]
[1]; [3]
  Final State: Homogeneous
[1]; [4]
  Final State: Homogeneous

## CCCC(O)CO (stereo not drawn) [1,2-pentanediol]
[1]; CHG 50 wt. % in vehicle, 23-50° C., Vacuum Method
  Final State: Homogeneous

## CC(O)CO (stereo not drawn) [1,2-propanediol]
[1]; [3]
  Final State: Homogeneous

## OC1CCCC(O)C1 (stereo not drawn) [1,3-cyclohexanediol]
[1]; CHG 6 wt. % in vehicle, 23° C., Vacuum Method
  Final State: Inhomogeneous
[1]; CHG 6 wt. % in vehicle, 50° C., Vacuum Method
  Final State: Homogeneous
[1]; CHG 10 wt. % in vehicle, 23° C., Vacuum Method
  Final State: Inhomogeneous
[1]; CHG 10 wt. % in vehicle, 50° C., Vacuum Method
  Final State: Homogeneous

## OCC1(O)COC(O)(CO)CO1 (stereo not drawn) [1,3-dihydroxyacetone dimer]
[1]; [3]
  Final State: Homogeneous

## OCCCCO [1,4-butanediol]
[1]
  CHG solubility in vehicle (trend): provides solubility
  Final State: Homogeneous

## OC1CCC(O)CC1 (stereo not drawn) [1,4-cyclohexanediol]
[1]; [3]
  Final State: Inhomogeneous
[1]; [5]
  CHG solubility in vehicle (trend): do not provide good solubility

## OCCCCCO [1,5-pentanediol]
[1]
  CHG solubility in vehicle (trend): too widely separated to impart good solubility
  Final State: Inhomogeneous

## OCCCCCCCCO [1,8-octanediol]
[1]; [3]
  Final State: Inhomogeneous
[1]; [5]
  CHG solubility in vehicle (trend): too widely separated to impart good solubility

## CC(O)C(C)O (stereo not drawn) [2,3-butanediol]
[1]
  Final State: Homogeneous

## CC(C)(O)C(C)(C)O [2,3-dimethyl-2,3-butanediol]
[1]
  CHG solubility in vehicle (trend): do not always impart solubility
  Final State: Inhomogeneous

## CC(O)CCC(C)O (stereo not drawn) [2,5-hexanediol]
[1]; [3]
  Final State: Inhomogeneous
[1]; [5]
  CHG solubility in vehicle (trend): do not provide good solubility

## CC(C)(O)CCO [3-methyl-1,3-butanediol]
[1]; CHG 1 wt. % in vehicle, 23° C., Vacuum Method
  Final State: Inhomogeneous
[1]; CHG 1 wt. % in vehicle, 50° C., Vacuum Method
  Final State: Homogeneous
[1]; CHG 2.5 wt. % in vehicle, 23° C., Vacuum Method
  Final State: Inhomogeneous
[1]; CHG 2.5 wt. % in vehicle, 50° C., Vacuum Method
  Final State: Homogeneous
[1]; [6]
  Final State: Inhomogeneous
[1]; [3]
  Final State: Inhomogeneous

## CCOC(=O)CC(CC(=O)OCC)(OC(C)=O)C(=O)OCC [Acetyltriethyl citrate]
[2]
  Apparent solubility 2 minutes: no
  Apparent solubility 2 hours 50° C.: soluble
  Apparent solubility >24 hours: partial
  Apparent solubility after cooling: partial
  Apparent solubility immediate: no

## CCCCOC(=O)[C@H](O)[C@@H](O)C(=O)OCCCC [Dibutyl-L-Tartrate]
[1]
  Final State: Homogeneous

## CCOC(=O)[C@@H](O)[C@H](O)C(=O)OCC [Diethyl-D-Tartrate]
[1]; [3]
  Final State: Homogeneous

## CCOC(=O)[C@H](O)[C@@H](O)C(=O)OCC [Diethyl-L-Tartrate]
[1]
  Final State: Homogeneous

## COCCOCCOC [Diethyleneglycol Dimethyl Ether]
[1]
  Final State: Inhomogeneous

## CCCCOCCOCCO [Diethyleneglycol Monobutyl Ether]
[1]
  Final State: Inhomogeneous

## CCOCCOCCO [Diethyleneglycol monoethyl ether]
[1]; CHG 2.5 wt. % in vehicle, 23-50° C., Vacuum Method
  Final State: Homogeneous
[1]; [6]
  Final State: Inhomogeneous
[1]; [3]
  Final State: Inhomogeneous

## COCCOCCO [Diethyleneglycol monomethyl ether]
[1]; [3]
  Final State: Homogeneous

## CC(C)OC(=O)[C@@H](O)[C@H](O)C(=O)OC(C)C [Diisopropyl-D-Tartrate]
[1]
  Final State: Inhomogeneous

## CC(C)OC(=O)[C@H](O)[C@@H](O)C(=O)OC(C)C [Diisopropyl-L-Tartrate]
[1]; [3]
  Final State: Inhomogeneous

## CCCCC(CC)COCC(O)CO (stereo not drawn) [Ethylhexyl glycerin]
[1]
  Final State: Homogeneous

## CCCCCCCCO [Example 1-octanol, 1-octanol]
[1]; [3]
  Final State: Inhomogeneous

## CC(C)CCCCCCCCCCCCCCC(=O)OCC(O)CO (stereo not drawn) [GMIS-1, glycerol monoisostearate]
[2]
  solubility of CHG in vehicle (dissolution experiments using lyophilized CHG): limited

## CC(C)CCCCCCCCCCCCCCC(=O)OCC(O)CO (stereo not drawn) [GMIS-2, glycerol monoisostearate]
[2]
  solubility of CHG in vehicle (dissolution experiments using lyophilized CHG): good solvent for CHG

## OCC(O)CO [Glycerol]
[1]
  Final State: Homogeneous

## CCCCCCCC(=O)OCC(O)CO (stereo not drawn) [Glyceryl monocaprylate]
[1]
  Final State: Homogeneous

## CC(C)CCCCCCCCCCCCCCC(=O)OCC(O)CO (stereo not drawn) [Glyceryl monoisostearate]
[1]; CHG 10 wt. % in vehicle, 23-60° C., Vacuum Method
  Final State: Homogeneous
[1]; CHG 16 wt. % in vehicle, 23-60° C., Vacuum Method
  Final State: Homogeneous
[1]; CHG 20 wt. % in vehicle, 60° C., Vacuum Method
  Final State: Homogeneous

## CCCCCCCCCCCC(=O)OCC(O)CO (stereo not drawn) [Glyceryl monolaurate]
[1]; CHG 20 wt. % in vehicle, 75° C., Vacuum Method
  Final State: Homogeneous

## CCCCCCCC/C=C\CCCCCCCC(=O)OCC(O)CO (stereo not drawn) [Glyceryl monooleate]
[1]; [4]
  Final State: Homogeneous

## CCCCCCCCCCCCCCCCCC(=O)OCC(O)CO (stereo not drawn) [Glyceryl monostearate]
[1]; CHG 10 wt. % in vehicle, 80° C., Vacuum Method
  Final State: Homogeneous

## CC(C)CCCCCCCCCCCCCCCOC(=O)CCCCCCCCCCCCCCC(C)C [Isostearyl isostearate]
[2]
  Apparent solubility 2 minutes: no
  Apparent solubility 2 hours 50° C.: partial
  Apparent solubility >24 hours: no
  Apparent solubility after cooling: partial
  Apparent solubility immediate: no

## CCOC(=O)C(=O)OCC [Oxalic Acid Diethyl Ester]
[1]
  Final State: Inhomogeneous

## CC(C)CCCCCCCCCCCCCCC(=O)OCC(COC(=O)CCCCCCCCCCCCCCC(C)C)(COC(=O)CCCCCCCCCCCCCCC(C)C)COC(=O)CCCCCCCCCCCCCCC(C)C [Pentaerythritol tetraisostearate]
[2]
  Apparent solubility 2 minutes: partial
  Apparent solubility 2 hours 50° C.: partial
  Apparent solubility >24 hours: partial
  Apparent solubility after cooling: partial
  Apparent solubility immediate: partial

## OCCOCCOCCO [Triethylene glycol]
[1]
  Final State: Homogeneous

## CC(O)COC(C)COC(C)CO (stereo not drawn) [Tripropylene glycol]
[1]
  Final State: Inhomogeneous

## Decaglyceryl pentaoleate
[1]
  Final State: Inhomogeneous

## Decaglyceryl tristearate
[1]
  Final State: Homogeneous

## Diisostearyl dimerate
[2]
  Apparent solubility 2 minutes: no
  Apparent solubility 2 hours 50° C.: soluble
  Apparent solubility >24 hours: no
  Apparent solubility after cooling: no
  Apparent solubility immediate: no

## Dimer Diol
[1]
  Final State: Inhomogeneous

## Glycereth-18 Ethylhexanoate
[2]
  Apparent solubility 2 minutes: no
  Apparent solubility 2 hours 50° C.: soluble
  Apparent solubility >24 hours: soluble
  Apparent solubility after cooling: soluble
  Apparent solubility immediate: no

## Octyldodeceth-10
[2]
  Apparent solubility 2 minutes: partial
  Apparent solubility 2 hours 50° C.: partial
  Apparent solubility >24 hours: partial
  Apparent solubility after cooling: partial
  Apparent solubility immediate: no

## Oleth-2
[2]
  Apparent solubility 2 minutes: no
  Apparent solubility 2 hours 50° C.: partial
  Apparent solubility >24 hours: no
  Apparent solubility after cooling: partial
  Apparent solubility immediate: no

## PEG-20 glyceryl Triisostearate
[2]
  Apparent solubility 2 minutes: partial
  Apparent solubility 2 hours 50° C.: partial
  Apparent solubility >24 hours: partial
  Apparent solubility after cooling: partial
  Apparent solubility immediate: no

## Polyethyleneglycol Dimethyl Ether
[1]
  Final State: Inhomogeneous

## Polyglycerol-2-Triisostearate
[1]
  Final State: Inhomogeneous

## Sorbeth-6
[1]
  Final State: Homogeneous

## Triglyceryl diisostearate
[1]
  Final State: Inhomogeneous
